The test system of data set [1] is GluN2B. Briefly: Western blot of GluN2B protein in cultured fetal cortical cells. The class given is cell-based, mice. Conditions: for Effect on GluN2B expression compared to the vehicle: comment on Table 6; for GluN2B expression, Western blot results, Mean: relative value, vehicle set to 1, treated for 24 hours, N 3 or more. How it is done: The amount of GluN2B reacted with the compound of the present disclosure was measured using Western blot. The fetal cerebral cortex was extracted from mice at 17 days of gestation, dissociated into single cells, cultured for 13 days, and treated with BnH drugs for 24 hours. The drug-treated cells were subjected to protein lysate preparation using RIPA protein lysis buffer containing protease and phosphatase inhibitors. The protein concentration was determined using a BCA protein assay kit (Pierce Biotechnology) using bovine serum albumin as a standard. Equal amounts of protein (20 μg per lane) were separated by electrophoresis on SDS-polyacrylamide gels at 90 V for 2 hours, then transferred from the SDS-polyacrylamide gel to PVDF membrane at 100 V for 1 hour. Then, primary reaction with GluN2B antibody (ab65783, Abcam) was performed at 4° C. for 1 day, washed three times at 10-minutes intervals with 1×PBT, and secondary reaction was performed with anti-mouse antibody (sc-2357, Santa Cruz) for 1 hour, followed by washing three times at 10-minutes intervals with 1×PBT. Western blotting was performed as described above to confirm GluN2B protein expression. Subsequently, each blot was re-probed using anti-β-actin antibody (sc-47778, Santa Cruz). Housekeeping protein β-actin was detected as a normalization control.
The increase and decrease of BnH12 series were confirmed by setting the vehicle to 1 (N for each group was 3 or more).
Using the experimental procedure described in Example 3, it was determined whether various BnH12 series compounds increase GluN2B expression, and the results are shown in Table 6. These in vitro experimental results are expressed as relative values to the group (vehicle) that was not treated with the compound, with the effect of the group set to 1.

Data set [2] has as its system 293T cells. Description: Cytotoxicity test (CCK-8 cell viability) in 293T cells. The class given is cell-based, human. Conditions: 24 hours co-incubation, 293T cell line, % of control. As for the experimental part:
Human undifferentiated neuroblastoma cell line SH-SY5Y and human embryonic kidney cell line (HEK)-293T were purchased from Korean Cell Line Bank (Korea) and Takara (Japan), respectively. Cells were grown in HyClone Minimal Essential Medium (MEM) and Dulbecco's Modified Eagle Medium (DMEM), respectively, supplemented with 10% (v/v) fetal bovine serum (FBS), penicillin (100 U/mL), and streptomycin ([…]). Cells were maintained in a humidified atmosphere of 95% air and 5% CO2 at 37° C. Cells were passaged 10 times at maximum. Cells were dissociated using 0.05% trypsin-EDTA solution and the cells were seeded in new culture dishes for maintenance.
To examine the cytotoxicity of compounds described herein in human cell lines, SH-SY5Y and 293T cells were used. Approximately 8,000 cells (for 293T) and 15,000 cells (for SH-SY5Y) were plated per well of a 96-well plate (SPL Life Sciences Co., Ltd., Pocheon, Korea). After incubating at 37° C. for 24 hours in a humidified atmosphere containing 5% CO2, the culture medium was replaced by a series of concentrations of test compounds diluted in the corresponding culture medium. The time of co-incubation was 24 hours and six replicates were made for each measurement. Finally, 10 μL of CCK-8 reagent (Dojindo Laboratories, Rockville, MD) was added to each well, and after incubation at 37° C. for 3 minutes, the OD at 450 nm was measured using a multifunction microplate reader (Tecan Infinite M200 Pro). These measurements were compared to that of a control and expressed as a percentage of the control to calculate cell viability. The IC50 value was calculated using SPSS software. To do this, the absorbance of the blank wells with only growth medium is subtracted from the values or the wells with cells. The readout value of background (vehicle) was set as a 100% viability, and then the percent viability for each test solution was calculated.
Cell viability (%)=[(As-Ab)/(Ac-Ab)]×100
The data was presented as the mean value and standard error of the mean (S.E.M.). Statistical analysis was performed with the one-way ANOVA with Tukey's post hoc test (GraphPad Prism 5 software package, version 5.02, GraphPad Software Inc. USA). Significance was accepted at p<0.05.

The results in this text go back to patent US20250188032A1, “NITROGEN-CONTAINING HETEROCYCLIC COMPOUNDS AND USES THEREOF” (BNH RESEARCH CO., LTD., priority 2022, published 2025).

Structures are written as SMILES. “And” between values parts separate entries of the source, which are not always exact repeats. Equal values may be shown once.

Turning to `C[C@H]1CC[C@@H](C(=O)[O-])CN1C(=O)Cc1cccnc1.[Na+]` [BnH12038, Sodium (3R,6S)-6-methyl-1-(2-(pyridin-3-yl)acetyl)piperidine-3-carboxylate], in data set [1], the “Effect on GluN2B expression compared to the vehicle” value (from here on “Effect … compared to the vehicle”) is given as “excellent effects” and the “GluN2B expression, Western blot results, Mean” value (shortened to “GluN2B expression … Mean”) came to 1.811. Also, in data set [2], the “Cell viability test results (CCK) 10 uM” value came to 85%< and the “Cell viability test results (CCK) 100 uM” value is 85%<.
`COc1ccc(CC(=O)N2C[C@H](C(=O)O)CC[C@@H]2C)cc1` [BnH12025, (3R,6S)-1-(2-(4-methoxyphenyl)acetyl)-6-methylpiperidine-3-carboxylic acid]: in data set [1], the “Effect … compared to the vehicle” value is listed as “excellent effects” and the “GluN2B expression … Mean” value was determined as 1.582. Further, in data set [2], the “Cell viability test results (CCK) 10 uM” value is given as 90%< and the “Cell viability test results (CCK) 100 uM” value was 80%<.
Take `C[C@H]1CC[C@@H](C(=O)O)CN1C(=O)c1ccccc1` [BnH12065, (3R,6S)-1-benzoyl-6-methylpiperidine-3-carboxylic acid]: the “GluN2B expression … Mean” value in data set [1] was found to be 1.326. In addition, in data set [2], the “Cell viability test results (CCK) 10 uM” value stood at 95%< and the “Cell viability test results (CCK) 100 uM” value was 95%<.
For `C[C@H]1CC[C@@H](C(=O)O)CN1C(=O)Cc1ccc(N)cc1` [BnH12070, (3R,6S)-1-(2-(4-aminophenyl)acetyl)-6-methylpiperidine-3-carboxylic acid], the “GluN2B expression … Mean” value in data set [1] is on record as 1.302. In data set [2], the “Cell viability test results (CCK) 10 uM” value was determined as 99%< and the “Cell viability test results (CCK) 100 uM” value is on record as 90%<.
In the case of `C[C@H]1CC[C@@H](C(=O)O)CN1C(=O)Cc1cccc(N)c1` [BnH12074, (3R,6S)-1(2-(3-aminophenyl)acetyl)-6-methylpiperidine-3-carboxylic acid], in data set [1], the “Effect … compared to the vehicle” value is “excellent effects” and the “GluN2B expression … Mean” value was 2.146. In addition, in data set [2], the “Cell viability test results (CCK) 10 uM” value was determined as 85%< and the “Cell viability test results (CCK) 100 uM” value is 80%<.
As for `COc1ccc(CC(=O)N2C[C@@H](C(=O)O)CC[C@H]2C)cc1` [BnH12063, (3S,6R)-1-(2-(4-methoxyphenyl)acetyl)-6-methylpiperidine-3-carboxylic acid], in data set [1], the “Effect … compared to the vehicle” value is “excellent effects” and the “GluN2B expression … Mean” value is reported as 1.652. Moreover, in data set [2], the “Cell viability test results (CCK) 10 uM” value stood at 95%< and the “Cell viability test results (CCK) 100 uM” value was 95%<.
With `C[C@H]1CC[C@@H](C(=O)O)CN1CCc1ccc(F)cc1Cl` [BnH12010, (3R,6S)-1-(2-chloro-4-fluorophenethyl)-6-methylpiperidine-3-carboxylic acid], in data set [1], the “GluN2B expression … Mean” value amounted to 1.074.
With `CC(C)C1CCC(C(=O)O)CN1C(=O)Cc1ccc(F)cc1Cl` (centres unmarked) [BnH12096, 1-(2-(2-chloro-4-fluorophenyl)acetyl)-6-isopropylpiperidine-3-carboxylic acid], in data set [1], the “Effect … compared to the vehicle” value was “excellent effects” and the “GluN2B expression … Mean” value came out at 2.848. In data set [2], the “Cell viability test results (CCK) 10 uM” value was determined as 70%< and the “Cell viability test results (CCK) 100 uM” value stood at 65%<.
The corresponding values for `O=C(NO)[C@H]1CCCN1C(=O)c1ccccc1` [BnH12018, (R)-1-benzoyl-N-hydroxypyrrolidine-2-carboxamide] are “excellent effects”, 1.381, 90%< and 90%<.
The corresponding values for `C[C@H]1CCCCN1C(=O)Cc1cccnc1` [BnH12060, (S)-1-(2-methylpiperidin-1-yl)-2-(pyridin-3-yl)ethan-1-one] are “excellent effects”, 1.469, 99%< and 99%<.
`C[C@H]1CC[C@@H](C(=O)[O-])CN1C(=O)Cc1ccccn1.[Na+]` [BnH12039, Sodium (3R,6S)-6-methyl-1-(2-(pyridin-2-yl)acetyl)piperidine-3-carboxylate]: the “GluN2B expression … Mean” value in data set [1] is listed as 1.103. In data set [2], the “Cell viability test results (CCK) 10 uM” value was 95%< and the “Cell viability test results (CCK) 100 uM” value is recorded as 90%<.
The corresponding values for `C[C@H]1CCCCN1C(=O)Cc1ccc(F)cc1Cl` [BnH12005, (S)-2-(2-chloro-4-fluorophenyl)-1-(2-methylpiperidin-1-yl)ethan-1-one] are 1.206, 99%< and 90%<.
On to `C[C@@H]1CC[C@H](C(=O)[O-])CN1C(=O)Cc1cccnc1.[Na+]` [BnH12068, Sodium (3S,6R)-6-methyl-1-(2-(pyridin-3-yl)acetyl)piperidine-3-carboxylate], for which the “GluN2B expression … Mean” value in data set [1] came out at 1.286.
For `C[C@H]1CC[C@@H](C(=O)O)CN1C(=O)Cc1ccc([N+](=O)[O-])cc1` [BnH12069, (3R,6S)-6-methyl-1-(2-(4-nitrophenyl)acetyl)piperidine-3-carboxylic acid], in data set [1], the “Effect … compared to the vehicle” value is reported as “excellent effects” and the “GluN2B expression … Mean” value was determined as 1.993. Besides, in data set [2], the “Cell viability test results (CCK) 10 uM” value is 95%< and 80%<; the “Cell viability test results (CCK) 100 uM” value was 95%< and 80%<.
In the case of `C[C@H]1CC[C@@H](C(=O)NO)CN1C(=O)Cc1ccc(F)cc1Cl` [BnH12009, (3R,6S)-1-(2-(2-chloro-4-fluorophenyl)acetyl)-N-hydroxy-6-methylpiperidine-3-carboxamide], in data set [1], the “GluN2B expression … Mean” value is given as 1.248. Also, in data set [2], the “Cell viability test results (CCK) 10 uM” value was determined as 95%< and the “Cell viability test results (CCK) 100 uM” value was determined as 90%<.
`C[C@H]1CC[C@@H](C(=O)O)CN1C(=O)Cc1cccc([N+](=O)[O-])c1` [BnH12073, (3R,6S)-6-methyl-1-(2-(3-nitrophenyl)acetyl)piperidine-3-carboxylic acid]: in data set [1], the “Effect … compared to the vehicle” value is reported as “excellent effects” and the “GluN2B expression … Mean” value turned out to be 2.013. Further, in data set [2], the “Cell viability test results (CCK) 10 uM” value was found to be 85%< and the “Cell viability test results (CCK) 100 uM” value was 85%<.
Consider `C[C@H]1CC[C@@H](C(=O)[O-])CN1C(=O)Cc1ccncc1.[Na+]` [BnH12033, Sodium (3R,6S)-6-methyl-1-(2-(pyridin-4-yl)acetyl)piperidine-3-carboxylate], for which, in data set [2], the “Cell viability test results (CCK) 10 uM” value worked out at 90%< and the “Cell viability test results (CCK) 100 uM” value is 65%<.
The corresponding values for `C[C@H]1CC[C@@H](C(=O)O)CN1C(=O)Cc1cccc(Cl)c1` [BnH12026, (3R,6S)-1-(2-(3-chlorophenyl)acetyl)-6-methylpiperidine-3-carboxylic acid] are 99%< and 99%<.
The corresponding values for `CCOC(=O)[C@@H]1CC[C@H](C)N(C(=O)Cc2ccc(F)cc2Cl)C1` [BnH12021, Ethyl (3R,6S)-1-(2-(2-chloro-4-fluorophenyl)acetyl)-6-methylpiperidine-3-carboxylate] are 90%< and 80%<.
